Test results reported in patent US6815451B2, “1,2,3,4-Tetrahydroisoquinolines derivatives as urotensin II receptor antagonists” (Actelion Pharmaceuticals Ltd., priority 2001, dated 2004).

How the values were obtained:
[1] = biological target: T1, urotensin II receptor on TE-671 rhabdomyosarcoma cells (Homo sapiens, UniProt Q9UKP6); experiment: Inhibition of human [125I]-urotensin II binding to a rhabdomyosarcoma cell line (whole cell binding); settings: TE-671 whole cells, 20 pM human [125I]urotensin II, 4 h at 20° C.
T1 construct: host or cells: TE-671 rhabdomyosarcoma cells
T1 sequence (Q9UKP6 1-389): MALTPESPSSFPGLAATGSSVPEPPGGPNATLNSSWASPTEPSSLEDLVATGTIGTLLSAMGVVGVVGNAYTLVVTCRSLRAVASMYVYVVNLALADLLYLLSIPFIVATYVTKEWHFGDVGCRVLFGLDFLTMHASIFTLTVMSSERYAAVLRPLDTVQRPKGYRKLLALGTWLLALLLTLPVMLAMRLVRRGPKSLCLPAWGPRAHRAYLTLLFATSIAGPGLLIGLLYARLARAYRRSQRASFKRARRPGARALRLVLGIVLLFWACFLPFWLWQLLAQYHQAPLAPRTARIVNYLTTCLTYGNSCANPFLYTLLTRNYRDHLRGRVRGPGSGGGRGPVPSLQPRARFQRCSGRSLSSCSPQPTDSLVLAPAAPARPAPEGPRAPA
Description: 1) Inhibition of Human [125I]-urotensin II Binding to a Rhabdomyosarcoma Cell Line
Whole cell binding of human [^125I]-urotensin II is performed using human-derived TE-671 rhabdomyosarcoma cells (Deutsche Sammlung von Mikroorganismen und Zellkulturen, cell line #ACC-263), by methods adapted from a whole cell endothelin binding assay (Breu V et al., In vitro characterization of Ro-46-2005, a novel synthetic non-peptide antagonist of ETA and ETB receptors. FEBS Lett. 1993, 334, 210-214).
The assay is performed in 250 μL Dubecco's modified eagle medium, pH 7.4 (GIBCO BRL, CatNo 31885-023), including 25 mM HEPES (Fluka, CatNo 05473), 1.0% DMSO (Fluka, CatNo 41644) and 0.5% (w/v) BSA Fraction V (Fluka, CatNo 05473) in polypropylene microtiter plates (Nunc, CatNo 442587). 300,000 suspended cells are incubated with gentle shaking for 4 h at 20° C. with 20 pM human [^125I]Urotensin II (Anawa Trading SA, Wangen, Switzerland, 2130 Ci/mmol) and increasing concentrations of unlabeled antagonist. Minimum and maximum binding are derived from samples with and without 100 nM unlabelled U-II, respectively. After the 4 h incubation period, the cells are filtered onto GF/C filter plates (Packard, CatNo 6005174). The filter plates are dried, and then 50 μL scintillation cocktail (Packard, MicroScint 20, CatNo 6013621) is added to each well. The filter plates are counted in a microplate counter (Packard Bioscience, TopCount NXT).
All test compounds are dissolved and diluted in 100% DMSO. A […] dilution into assay buffer is performed prior to addition to the assay. […] Specific binding is the difference between maximum binding and minimum binding, as described above.

isolated rat aortic arch = settings: for pD2′ (functional inhibitory potency): Wistar rat aortic arch rings, 20 min incubation with test compound before cumulative doses of human urotensin II
Description: 2) Inhibition of Human Urotensin II-Induced Contractions of Isolated Rat Aortic Arch Adult Wistar rats are anesthetized (CO2 inhalation) and exsanguinated. The aortic arch is excised, dissected and cut in 3 rings of 3 mm, ring #1 being the more proximal and ring #3 being the more distal. Each ring is suspended in a 10 mL isolated organ bath filled with Krebs-Henseleit solution (in mM; NaCl 115, KCl 4.7, MgSO4 1.2, KH2PO4 1.5, NaHCO3 25, CaCl2 2.5, glucose 10; pH 7.4) kept at 37° C. and gassed with 95% O2 and 5% CO2. The rings are connected to force transducers and isometric tension is recorded (EMKA Technologies SA, Paris, France). The rings are stretched to a resting tension of 3 g. […] The functional inhibitory potency of the test compound is assessed by calculating the pD2′ according to the formula: pD2′=Log (CR-1)-Log [B], where CR is the ratio of the maximal effect without/with antagonist and [B] the concentration of the antagonist.

Row | SMILES | IC50 [1] [nM] | EC50 (isolated rat aortic arch) [nM] | pD2′ (functional inhibitory potency) (isolated rat aortic arch)
1 | CC(C)[C@H](NC(=O)[C@@H]1CSSC[C@H](NC(=O)[C@H](CC(=O)O)NC(=O)[C@@H]2CCCN2C(=O)[C@@H](NC(=O)[C@@H](N)CCC(=O)O)[C@@H](C)O)C(=O)N[C@@H](Cc2ccccc2)C(=O)N[C@@H](Cc2c[nH]c3ccccc23)C(=O)N[C@@H](CCCCN)C(=O)N[C@@H](Cc2ccc(O)cc2)C(=O)N1)C(=O)O [human U-II, reference compound] | – | 1.09 ± 0.1 | –
2 | COc1ccc(CC2c3c(OC)ccc(OC)c3CCN2CCNC(=O)Nc2ccnc3ccccc23)cc1OC (stereo not shown) [Example 93, 1-{2-[1-(3,4-Dimethoxy-benzyl)-5,8-dimethoxy-3,4-dihydro-1H-isoquinolin-2-yl]-ethyl}-3-quinolin-4-yl-urea] | – | – | 5.45

The next lines start with results.

Row | IC50 [1] [nM] | EC50 (isolated rat aortic arch) [nM] | SMILES | pD2′ (functional inhibitory potency) (isolated rat aortic arch)
3 | 550 | – | COc1cc2c(c(OC)c1)C(Cc1ccc(OC)c(OC)c1)N(CCNC(=O)Nc1cc(C)nc3ccccc13)CC2 (stereo not shown) [Example 58, 1-{2-[1-(3,4-Dimethoxy-benzyl)-6,8-dimethoxy-3,4-dihydro-1H-isoquinolin-2-yl]-ethyl}-3-(2-methyl-quinolin-4-yl)-urea] | –
4 | 125 | – | COc1cc2c(cc1OC)C(CCc1ccccc1)N(CCNC(=O)Nc1cc(C)nc3ccccc13)CC2 (stereo not shown) [Example 29, 1-[2-(6,7-Dimethoxy-1-phenethyl-3,4-dihydro-1H-isoquinolin-2-yl)-ethyl]-3-(2-methyl-quinolin-4-yl)-urea] | 5.23
5 | 63 | – | COc1ccc(CCC2c3cc(OC)c(OC)cc3CCN2CCNC(=O)Nc2cc(C)nc3ccccc23)cc1OC (stereo not shown) [Example 22, 1-(2-{1-[2-(3,4-Dimethoxy-phenyl)-ethyl]-6,7-dimethoxy-3,4-dihydro-1H-isoquinolin-2-yl}-ethyl)-3-(2-methyl-quinolin-4-yl)-urea] | –
6 | 67 | – | COc1cc2c(cc1OC)C(CCc1cc(F)ccc1F)N(CCNC(=O)Nc1cc(C)nc3ccccc13)CC2 (stereo not shown) [Example 20, 1-(2-{1-[2-(2,5-Difluoro-phenyl)-ethyl]-6,7-dimethoxy-3,4-dihydro-1H-isoquinolin-2-yl}-ethyl)-3-(2-methyl-quinolin-4-yl)-urea] | –
